Experimental data reported in paper doi:10.1101/2024.08.19.608619, “Discovery of potent SARS-CoV-2 nsp3 macrodomain inhibitors uncovers lack of translation to cellular antiviral response” (bioRxiv, 2024).
In brackets after ≈: the same amount, converted by molar mass. Several values for one entry are separate records, joined by “and”; a condition that tells them apart may be missing. Equal entries are not always repeated. Where two headings read alike, the source gives them in different places.

Legend:
[1] = molecular target: T1, eEF-2K(h) (Homo sapiens, UniProt O00418); experiment: biochemical; set-up: In vitro kinase panel profiling, per cent remaining kinase activity at 10 uM; conditions: atp_concentration=15, read-out: % of control remaining
T1 construct: gene EEF2K
T1 sequence (O00418 1-725): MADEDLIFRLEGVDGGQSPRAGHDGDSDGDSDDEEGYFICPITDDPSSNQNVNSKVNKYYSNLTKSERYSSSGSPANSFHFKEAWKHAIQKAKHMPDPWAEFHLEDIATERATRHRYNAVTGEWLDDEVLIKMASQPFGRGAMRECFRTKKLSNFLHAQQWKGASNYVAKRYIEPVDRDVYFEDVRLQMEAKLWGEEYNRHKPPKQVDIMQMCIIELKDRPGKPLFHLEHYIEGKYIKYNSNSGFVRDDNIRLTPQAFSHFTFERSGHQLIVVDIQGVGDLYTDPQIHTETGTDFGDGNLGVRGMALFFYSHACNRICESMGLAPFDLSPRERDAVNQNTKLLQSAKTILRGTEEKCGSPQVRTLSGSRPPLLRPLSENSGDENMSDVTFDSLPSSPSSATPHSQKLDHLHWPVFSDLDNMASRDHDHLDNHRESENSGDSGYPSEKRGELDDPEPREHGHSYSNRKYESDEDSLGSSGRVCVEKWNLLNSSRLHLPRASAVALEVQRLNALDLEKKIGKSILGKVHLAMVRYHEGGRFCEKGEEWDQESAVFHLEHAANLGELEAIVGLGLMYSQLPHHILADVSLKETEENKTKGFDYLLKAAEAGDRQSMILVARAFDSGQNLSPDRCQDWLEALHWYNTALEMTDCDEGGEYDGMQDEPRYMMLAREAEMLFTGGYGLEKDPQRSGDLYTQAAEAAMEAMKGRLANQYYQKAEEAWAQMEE
From the text: (§1) We derisk potential for off-target activity by profiling the compound in a CEREP panel, a standard secondary pharmacology assessment, as well as a kinase panel to derisk a potential hinge-binding motif in our leads, and a PARP panel to derisk activity against human […]. Reassuringly, the compounds are selective, with the only off-targets being moderate human CHRM2 and KOR receptors activity associated with ASAP-0011198.

[2] = molecular target: T2, SAPK2a(h) (Homo sapiens, UniProt Q16539); experiment: biochemical; set-up: In vitro kinase panel profiling, per cent remaining kinase activity at 10 uM; conditions: atp_concentration=90, read-out: % of control remaining
T2 construct: gene MAPK14
T2 sequence (Q16539 whole entry): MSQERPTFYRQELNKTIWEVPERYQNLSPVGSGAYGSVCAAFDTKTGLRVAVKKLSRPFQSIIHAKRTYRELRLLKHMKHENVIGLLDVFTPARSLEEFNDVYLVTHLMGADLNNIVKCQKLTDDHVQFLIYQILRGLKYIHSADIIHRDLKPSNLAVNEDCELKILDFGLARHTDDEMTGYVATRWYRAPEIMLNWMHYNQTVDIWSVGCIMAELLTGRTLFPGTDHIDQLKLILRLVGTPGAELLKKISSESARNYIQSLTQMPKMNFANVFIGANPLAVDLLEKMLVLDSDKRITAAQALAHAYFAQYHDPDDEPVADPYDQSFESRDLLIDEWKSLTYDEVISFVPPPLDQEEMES
From the text: as §1

[3] = molecular target: T3, PDGFRβ(h) (Homo sapiens, UniProt P09619); experiment: biochemical; set-up: In vitro kinase panel profiling, per cent remaining kinase activity at 10 uM; conditions: atp_concentration=200, read-out: % of control remaining
T3 construct: gene PDGFRB
T3 sequence (P09619 whole entry): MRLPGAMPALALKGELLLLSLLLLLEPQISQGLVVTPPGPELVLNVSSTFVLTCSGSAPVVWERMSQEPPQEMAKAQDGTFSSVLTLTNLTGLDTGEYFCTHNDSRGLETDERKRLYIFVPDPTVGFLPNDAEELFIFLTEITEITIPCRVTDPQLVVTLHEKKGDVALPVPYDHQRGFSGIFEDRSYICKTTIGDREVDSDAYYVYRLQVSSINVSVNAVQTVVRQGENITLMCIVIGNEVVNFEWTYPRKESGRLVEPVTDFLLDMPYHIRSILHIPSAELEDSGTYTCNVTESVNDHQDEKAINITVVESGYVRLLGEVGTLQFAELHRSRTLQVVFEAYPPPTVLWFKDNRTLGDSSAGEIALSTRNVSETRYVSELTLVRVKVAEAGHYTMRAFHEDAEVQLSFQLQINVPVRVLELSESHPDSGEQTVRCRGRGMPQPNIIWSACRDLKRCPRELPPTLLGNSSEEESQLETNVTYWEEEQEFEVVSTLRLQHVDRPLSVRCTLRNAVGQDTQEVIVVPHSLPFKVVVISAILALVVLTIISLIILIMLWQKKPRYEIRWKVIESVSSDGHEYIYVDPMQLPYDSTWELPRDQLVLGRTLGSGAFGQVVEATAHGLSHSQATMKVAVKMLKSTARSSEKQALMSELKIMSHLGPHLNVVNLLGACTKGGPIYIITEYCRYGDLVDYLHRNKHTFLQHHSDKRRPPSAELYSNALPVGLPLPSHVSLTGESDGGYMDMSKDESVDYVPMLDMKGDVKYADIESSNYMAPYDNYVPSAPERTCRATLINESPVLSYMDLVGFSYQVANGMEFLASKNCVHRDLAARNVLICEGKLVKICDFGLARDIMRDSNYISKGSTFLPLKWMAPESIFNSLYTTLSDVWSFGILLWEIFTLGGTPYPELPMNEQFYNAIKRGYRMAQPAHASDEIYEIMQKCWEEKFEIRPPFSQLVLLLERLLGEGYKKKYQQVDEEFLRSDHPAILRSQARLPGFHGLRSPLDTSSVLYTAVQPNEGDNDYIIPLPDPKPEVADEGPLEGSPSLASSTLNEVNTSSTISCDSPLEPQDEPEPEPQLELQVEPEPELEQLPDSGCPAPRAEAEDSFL
From the text: as §1

[4] = molecular target: T4, CHK1(h) (Homo sapiens, UniProt O14757); experiment: biochemical; set-up: In vitro kinase panel profiling, per cent remaining kinase activity at 10 uM; conditions: atp_concentration=90, read-out: % of control remaining
T4 construct: gene CHEK1
T4 sequence (O14757 1-476): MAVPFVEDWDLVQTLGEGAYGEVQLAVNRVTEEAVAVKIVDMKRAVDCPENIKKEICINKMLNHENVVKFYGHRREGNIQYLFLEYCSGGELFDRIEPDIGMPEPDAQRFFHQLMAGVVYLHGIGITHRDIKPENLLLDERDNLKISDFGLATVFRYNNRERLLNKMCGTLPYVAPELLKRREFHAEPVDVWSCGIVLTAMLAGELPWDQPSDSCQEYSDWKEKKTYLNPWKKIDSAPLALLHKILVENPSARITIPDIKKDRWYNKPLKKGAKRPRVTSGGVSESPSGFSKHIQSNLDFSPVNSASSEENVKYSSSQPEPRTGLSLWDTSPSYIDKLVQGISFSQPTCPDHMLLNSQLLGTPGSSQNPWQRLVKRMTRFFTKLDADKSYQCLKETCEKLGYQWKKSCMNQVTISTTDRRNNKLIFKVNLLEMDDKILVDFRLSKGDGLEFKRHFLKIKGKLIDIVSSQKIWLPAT
From the text: as §1

[5] = molecular target: T5, PI3 Kinase (p110β/p85α)(h) (Homo sapiens, UniProt P42338); experiment: biochemical; set-up: In vitro kinase panel profiling, per cent remaining kinase activity at 10 uM; conditions: atp_concentration=200, read-out: % of control remaining
T5 construct: gene PIK3CB
From the text: as §1

[6] = molecular target: CDK1/cyclinB(h) (Homo sapiens, UniProt P06493); experiment: biochemical; set-up: In vitro kinase panel profiling, per cent remaining kinase activity at 10 uM; conditions: atp_concentration=45, read-out: % of control remaining
Sequence of CDK1/cyclinB(h) (P06493 whole entry): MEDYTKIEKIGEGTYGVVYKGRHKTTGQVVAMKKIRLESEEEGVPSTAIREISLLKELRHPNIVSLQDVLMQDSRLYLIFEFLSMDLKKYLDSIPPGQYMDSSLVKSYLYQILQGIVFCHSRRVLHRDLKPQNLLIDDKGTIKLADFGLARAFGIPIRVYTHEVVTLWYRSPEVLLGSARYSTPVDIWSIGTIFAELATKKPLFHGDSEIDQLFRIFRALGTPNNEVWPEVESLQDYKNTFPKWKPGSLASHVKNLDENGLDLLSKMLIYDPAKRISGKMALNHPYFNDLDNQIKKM
Sequence of CDK1/cyclinB(h) (P14635 whole entry partner): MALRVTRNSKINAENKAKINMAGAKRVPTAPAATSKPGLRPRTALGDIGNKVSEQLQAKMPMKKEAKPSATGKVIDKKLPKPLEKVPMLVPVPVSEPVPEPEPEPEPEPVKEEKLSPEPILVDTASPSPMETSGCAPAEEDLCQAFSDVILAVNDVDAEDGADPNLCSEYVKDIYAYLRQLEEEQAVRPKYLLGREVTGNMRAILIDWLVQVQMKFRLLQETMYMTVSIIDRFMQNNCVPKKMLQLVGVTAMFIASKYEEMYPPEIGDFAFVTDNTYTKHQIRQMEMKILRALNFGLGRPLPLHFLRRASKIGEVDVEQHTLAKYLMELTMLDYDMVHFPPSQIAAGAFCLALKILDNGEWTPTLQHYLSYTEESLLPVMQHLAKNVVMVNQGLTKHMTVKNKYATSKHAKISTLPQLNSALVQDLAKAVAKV
From the text: as §1

[7] = molecular target: CDK9/cyclin T1(h) (Homo sapiens, UniProt P50750); experiment: biochemical; set-up: In vitro kinase panel profiling, per cent remaining kinase activity at 10 uM; conditions: atp_concentration=45, read-out: % of control remaining
Sequence of CDK9/cyclin T1(h) (P50750 whole entry): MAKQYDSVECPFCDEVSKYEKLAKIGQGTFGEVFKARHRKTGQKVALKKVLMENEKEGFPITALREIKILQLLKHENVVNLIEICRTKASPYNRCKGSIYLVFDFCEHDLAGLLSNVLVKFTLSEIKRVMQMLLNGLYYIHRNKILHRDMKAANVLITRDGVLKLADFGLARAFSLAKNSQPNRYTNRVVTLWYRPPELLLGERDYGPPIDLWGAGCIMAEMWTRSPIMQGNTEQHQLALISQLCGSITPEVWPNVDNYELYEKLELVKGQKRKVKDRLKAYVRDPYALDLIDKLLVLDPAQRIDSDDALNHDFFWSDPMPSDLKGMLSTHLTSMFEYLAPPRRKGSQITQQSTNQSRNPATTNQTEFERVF
Sequence of CDK9/cyclin T1(h) (O60563 whole entry partner): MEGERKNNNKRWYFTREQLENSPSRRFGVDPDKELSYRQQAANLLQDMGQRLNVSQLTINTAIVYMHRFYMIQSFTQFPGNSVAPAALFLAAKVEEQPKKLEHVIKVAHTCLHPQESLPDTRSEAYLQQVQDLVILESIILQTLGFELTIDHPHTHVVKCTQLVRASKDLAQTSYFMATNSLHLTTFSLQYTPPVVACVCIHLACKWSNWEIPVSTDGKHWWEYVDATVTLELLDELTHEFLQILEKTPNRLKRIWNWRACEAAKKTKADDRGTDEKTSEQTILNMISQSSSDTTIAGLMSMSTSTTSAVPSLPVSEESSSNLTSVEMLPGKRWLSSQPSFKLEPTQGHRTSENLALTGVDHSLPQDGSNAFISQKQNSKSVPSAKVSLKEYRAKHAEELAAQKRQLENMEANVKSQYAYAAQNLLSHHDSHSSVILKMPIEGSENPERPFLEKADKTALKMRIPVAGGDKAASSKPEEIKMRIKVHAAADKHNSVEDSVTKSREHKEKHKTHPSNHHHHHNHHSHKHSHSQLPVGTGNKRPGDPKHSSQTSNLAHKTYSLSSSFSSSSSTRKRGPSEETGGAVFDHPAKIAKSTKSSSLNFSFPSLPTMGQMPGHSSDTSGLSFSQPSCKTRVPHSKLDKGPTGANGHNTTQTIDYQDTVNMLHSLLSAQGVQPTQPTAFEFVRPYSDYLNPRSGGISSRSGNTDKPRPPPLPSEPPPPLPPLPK
From the text: as §1

[8] = molecular target: T6, Abl(h) (Homo sapiens, UniProt P00519); experiment: biochemical; set-up: In vitro kinase panel profiling, per cent remaining kinase activity at 10 uM; conditions: atp_concentration=45, read-out: % of control remaining
T6 construct: gene ABL1
T6 sequence (P00519 whole entry): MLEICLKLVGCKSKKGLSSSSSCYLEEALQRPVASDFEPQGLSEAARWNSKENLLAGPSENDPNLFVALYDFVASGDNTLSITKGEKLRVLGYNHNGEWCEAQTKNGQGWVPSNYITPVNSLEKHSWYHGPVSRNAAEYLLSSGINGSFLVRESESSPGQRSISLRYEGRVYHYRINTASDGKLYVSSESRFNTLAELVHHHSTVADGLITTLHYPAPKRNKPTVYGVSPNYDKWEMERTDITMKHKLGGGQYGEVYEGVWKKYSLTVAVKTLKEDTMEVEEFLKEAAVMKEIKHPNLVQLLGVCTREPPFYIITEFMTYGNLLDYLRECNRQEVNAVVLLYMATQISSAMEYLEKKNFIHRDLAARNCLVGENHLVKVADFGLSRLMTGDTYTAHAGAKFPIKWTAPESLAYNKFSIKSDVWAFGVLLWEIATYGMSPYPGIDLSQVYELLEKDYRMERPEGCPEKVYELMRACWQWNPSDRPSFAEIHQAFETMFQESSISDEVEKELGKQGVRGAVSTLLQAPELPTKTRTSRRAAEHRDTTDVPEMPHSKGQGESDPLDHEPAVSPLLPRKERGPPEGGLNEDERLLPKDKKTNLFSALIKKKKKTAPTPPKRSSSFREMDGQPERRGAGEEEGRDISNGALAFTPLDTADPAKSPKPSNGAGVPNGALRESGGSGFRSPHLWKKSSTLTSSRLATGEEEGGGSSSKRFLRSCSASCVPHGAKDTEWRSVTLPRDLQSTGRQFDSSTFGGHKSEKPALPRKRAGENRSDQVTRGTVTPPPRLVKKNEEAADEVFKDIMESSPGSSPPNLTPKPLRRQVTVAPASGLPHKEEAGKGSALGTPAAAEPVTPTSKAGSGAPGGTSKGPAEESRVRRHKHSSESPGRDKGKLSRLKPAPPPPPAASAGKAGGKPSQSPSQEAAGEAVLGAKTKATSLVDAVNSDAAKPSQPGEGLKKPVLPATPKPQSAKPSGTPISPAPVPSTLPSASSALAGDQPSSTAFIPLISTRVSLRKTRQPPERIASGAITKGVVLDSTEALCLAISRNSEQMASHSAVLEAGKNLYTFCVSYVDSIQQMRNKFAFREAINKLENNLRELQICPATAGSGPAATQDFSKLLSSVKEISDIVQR
From the text: as §1

[9] = molecular target: T7, PKBα(h) (Homo sapiens, UniProt P31749); experiment: biochemical; set-up: In vitro kinase panel profiling, per cent remaining kinase activity at 10 uM; conditions: atp_concentration=155, read-out: % of control remaining
T7 construct: gene AKT1
T7 sequence (P31749 whole entry): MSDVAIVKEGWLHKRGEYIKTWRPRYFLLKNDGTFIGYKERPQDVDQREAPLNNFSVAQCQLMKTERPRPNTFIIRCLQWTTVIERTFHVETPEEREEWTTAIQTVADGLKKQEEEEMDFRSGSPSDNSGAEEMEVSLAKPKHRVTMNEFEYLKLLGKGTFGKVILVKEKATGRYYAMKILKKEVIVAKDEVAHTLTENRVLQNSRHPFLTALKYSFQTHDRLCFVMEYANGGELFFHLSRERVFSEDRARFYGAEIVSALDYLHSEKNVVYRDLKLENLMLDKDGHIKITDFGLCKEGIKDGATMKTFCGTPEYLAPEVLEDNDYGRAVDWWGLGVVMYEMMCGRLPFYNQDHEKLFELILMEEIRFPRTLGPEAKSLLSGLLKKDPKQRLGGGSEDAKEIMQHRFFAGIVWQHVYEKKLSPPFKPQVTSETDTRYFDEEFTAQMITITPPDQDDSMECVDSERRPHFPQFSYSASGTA
From the text: as §1

[10] = LogD; conditions: pH 7.4, In vitro LogD
[11] = Permeability Papp (AB) MDR1/MDCKII; conditions: for perc_recovery_a_to_b_mean / perc_recovery_a_to_b_inhibitor_mean: recovery A to B; for papp_a_to_b_mean: A to B; for papp_b_to_a_mean: B to A; for perc_recovery_b_to_a_mean / perc_recovery_b_to_a_inhibitor_mean: recovery B to A; for perc_recovery_a_to_b_inhibitor_mean / perc_recovery_b_to_a_inhibitor_mean: MDR1-MDCKII
[12] = In vitro kinetic solubility; conditions: In vitro kinetic solubility, ph 7.4
[13] = In vitro MDR1-MDCKII permeability, mean
[14] = In vitro MDR1-MDCKII permeability, no inhibitor

CC(C)C(Nc1ncnc2[nH]ccc12)c1ccc2c(c1)S(=O)(=O)CCC2 (stereo not shown) [ASAP-0008327]
remaining activity at 10 µM ([1]; batch_name=ASAP-0008327-001): 92%
remaining activity at 10 µM ([2]; batch_name=ASAP-0008327-001): 108%
remaining activity at 10 µM ([3]; batch_name=ASAP-0008327-001): 99%
remaining activity at 10 µM ([4]; batch_name=ASAP-0008327-001): 84%
remaining activity at 10 µM ([5]; batch_name=ASAP-0008327-001): 101%
remaining activity at 10 µM ([6]; batch_name=ASAP-0008327-001): 129%
remaining activity at 10 µM ([7]; batch_name=ASAP-0008327-001): 114%
remaining activity at 10 µM ([8]; batch_name=ASAP-0008327-001): 93%
remaining activity at 10 µM ([9]; batch_name=ASAP-0008327-001): 96%
logd ([10]; pH 7.4, logd): 2.5
perc_recovery_a_to_b_mean [11, 13]: 87.0%
solubility ([12]; pH 7.4, solubility_mean): 385 µM (≈ 143 µg/mL)

COc1ccc([C@@H](Cc2nnn[nH]2)NC(=O)c2ncnc3[nH]ccc23)cc1 [ASAP-0008340]
remaining activity at 10 µM ([1]; batch_name=ASAP-0008340-001): 96%
remaining activity at 10 µM ([2]; batch_name=ASAP-0008340-001): 100%
remaining activity at 10 µM ([3]; batch_name=ASAP-0008340-001): 102%
remaining activity at 10 µM ([4]; batch_name=ASAP-0008340-001): 95%
remaining activity at 10 µM ([5]; batch_name=ASAP-0008340-001): 102%
remaining activity at 10 µM ([6]; batch_name=ASAP-0008340-001): 108%
remaining activity at 10 µM ([7]; batch_name=ASAP-0008340-001): 117%
remaining activity at 10 µM ([8]; batch_name=ASAP-0008340-001): 98%
remaining activity at 10 µM ([9]; batch_name=ASAP-0008340-001): 94%
logd [10]: -0.1
papp_a_to_b_mean [11, 13]: 1.39 ×10⁻⁶ cm/s
perc_recovery_a_to_b_mean [11, 13]: 89.1%
solubility_mean [12]: 395 µM (≈ 144 µg/mL)

CC(C)[C@@H](Nc1ncnc2[nH]c(-c3cnn(C)c3C#N)cc12)c1ccc2c(n1)OCCO2 [ASAP-0008418]
remaining activity at 10 µM ([1]; batch_name=ASAP-0008418-001): 111%
remaining activity at 10 µM ([2]; batch_name=ASAP-0008418-001): 103%
remaining activity at 10 µM ([3]; batch_name=ASAP-0008418-001): 108%
remaining activity at 10 µM ([4]; batch_name=ASAP-0008418-001): 108%
remaining activity at 10 µM ([5]; batch_name=ASAP-0008418-001): 92%
remaining activity at 10 µM ([6]; batch_name=ASAP-0008418-001): 95%
remaining activity at 10 µM ([7]; batch_name=ASAP-0008418-001): 45%
remaining activity at 10 µM ([8]; batch_name=ASAP-0008418-001): 52%
remaining activity at 10 µM ([9]; batch_name=ASAP-0008418-001): 95%
logd [10]: 3.4 and 3.6
papp_a_to_b_mean [11, 13]: 12.8 ×10⁻⁶ cm/s and 21.3 ×10⁻⁶ cm/s
perc_recovery_a_to_b_mean [11, 13]: 82.0% and 88.6%
solubility_mean [12]: 89 µM and 60 µM

CC(C)[C@H](Nc1ncnc2[nH]ccc12)c1ccc2c(c1)S(=O)(=O)CCC2 [ASAP-0008674]
remaining activity at 10 µM ([1]; batch_name=ASAP-0008674-002): 93%
remaining activity at 10 µM ([2]; batch_name=ASAP-0008674-002): 107%
remaining activity at 10 µM ([3]; batch_name=ASAP-0008674-002): 89%
remaining activity at 10 µM ([4]; batch_name=ASAP-0008674-002): 110%
remaining activity at 10 µM ([5]; batch_name=ASAP-0008674-002): 100%
remaining activity at 10 µM ([6]; batch_name=ASAP-0008674-002): 93%
remaining activity at 10 µM ([7]; batch_name=ASAP-0008674-002): 112%
remaining activity at 10 µM ([8]; batch_name=ASAP-0008674-002): 105%
remaining activity at 10 µM ([9]; batch_name=ASAP-0008674-002): 95%
logd [10]: 2.7
papp_a_to_b_mean [11, 13]: 5.5 ×10⁻⁶ cm/s
papp_a_to_b_mean [11, 14]: 0.12 ×10⁻⁶ cm/s and 0.0631 ×10⁻⁶ cm/s
papp_b_to_a_mean [11, 14]: 5.9 ×10⁻⁶ cm/s and 5.29 ×10⁻⁶ cm/s
efflux_ratio [11, 14]: 49.5 and 83.8
perc_recovery_a_to_b_mean [11, 13]: 85.4%
perc_recovery_a_to_b_mean [11, 14]: 80.0% and 78.8%
perc_recovery_b_to_a_mean [11, 14]: 76.5% and 89.6%
perc_recovery_a_to_b_inhibitor_mean ([11]; with inhibitor Cyclosporin A): 83.2%
perc_recovery_a_to_b_inhibitor_mean ([11]; with inhibitor Verapamil): 90.5%
perc_recovery_b_to_a_inhibitor_mean ([11]; with inhibitor Cyclosporin A): 87.0%
perc_recovery_b_to_a_inhibitor_mean ([11]; with inhibitor Verapamil): 86.9%
solubility_mean [12]: 374 µM (≈ 139 µg/mL)

CC(C)[C@H](Nc1ncnc2[nH]c(-c3cnn(C)c3C#N)cc12)c1ccc2c(n1)OCCO2 [ASAP-0010715]
remaining activity at 10 µM ([1]; batch_name=ASAP-0010715-002): 108%
remaining activity at 10 µM ([2]; batch_name=ASAP-0010715-002): 99%
remaining activity at 10 µM ([3]; batch_name=ASAP-0010715-002): 92%
remaining activity at 10 µM ([4]; batch_name=ASAP-0010715-002): 119%
remaining activity at 10 µM ([5]; batch_name=ASAP-0010715-002): 86%
remaining activity at 10 µM ([6]; batch_name=ASAP-0010715-002): 89%
remaining activity at 10 µM ([7]; batch_name=ASAP-0010715-002): 79%
remaining activity at 10 µM ([8]; batch_name=ASAP-0010715-002): 57%
remaining activity at 10 µM ([9]; batch_name=ASAP-0010715-002): 90%
logd [10]: 3.7
papp_b_to_a_mean [11, 14]: 5.98 ×10⁻⁶ cm/s
perc_recovery_a_to_b_mean [11, 14]: 70.1% and 79.9%
perc_recovery_b_to_a_mean [11, 14]: 76.7%
perc_recovery_a_to_b_inhibitor_mean ([11]; with inhibitor Cyclosporin A): 75.0%
perc_recovery_b_to_a_inhibitor_mean ([11]; with inhibitor Cyclosporin A): 76.7%
solubility_mean [12]: 53 µM (≈ 22.8 µg/mL)
